Assay results taken from patent publication US10882844B2, “Compounds useful as immunomodulators” (Bristol-Myers Squibb Company, priority 2016, dated 2021).
Like-named read-outs stand apart in the source and are kept apart here.

Molecular target: PD-1/PD-L1 (Homo sapiens (Human), UniProt Q9NZQ7)
Experiment: PD-1/PD-L1 Homogenous Time-Resolved Fluorescence (HTRF) binding assay
Conditions: PD-1-Ig / PD-L1-His HTRF, read-out: Range or IC50
Text: The ability of the compounds of formula (I) to bind to PD-L1 was investigated using a PD-1/PD-L1 Homogenous Time-Resolved Fluorescence (HTRF) binding assay.
Homogenous Time-Resolved Fluorescence (HTRF) binding assay.
The interaction of PD-1 and PD-L1 can be assessed using soluble, purified preparations of the extracellular domains of the two proteins. The PD-1 and PD-L1 protein extracellular domains were expressed as fusion proteins with detection tags, for PD-1, the tag was the Fc portion of Immunoglobulin (PD-1-Ig) and for PD-L1 it was the 6 histidine motif (PD-L1-His). All binding studies were performed in an HTRF assay buffer consisting of dPBS supplemented with 0.1% […] bovine serum albumin and 0.05% (v/v) Tween-20. For the h/PD-L1-His binding assay, inhibitors were pre-incubated with PD-L1-His (10 nM final) for 15 m in 4 μl of assay buffer, followed by addition of PD-1-Ig (20 nM final) in 1 μl of assay buffer and further incubation for 15 m. HTRF detection was achieved using europium crypate-labeled anti-Ig (1 nM final) and allophycocyanin (APC) labeled anti-His (20 nM final). Antibodies were diluted in HTRF detection buffer and 5 μl was dispensed on top of the binding reaction. The reaction mixture was allowed to equilibrate for 30 minutes and the resulting signal (665 nm/620 nm ratio) was obtained using an EnVision fluorometer. Additional binding assays were established between the human proteins PD-1-Ig/PD-L2-His (20 & 5 nM, respectively) and CD8O-His/PD-L1-Ig (100 & 10 nM, respectively).
Recombinant Proteins: Human PD-1 (25-167) with a C-terminal human Fc domain of immunoglobulin G (Ig) epitope tag [hPD-1 (25-167)-3S-IG] and human PD-L1 (18-239) with a C-terminal His epitope tag [hPD-L1(18-239)-TVMV-His] were expressed in HEK293T cells and purified sequentially by ProteinA affinity chromatography and size exclusion chromatography. Human PD-L2-His and CD80-His was obtained through commercial sources.
The table below lists the IC50 values for representative examples of this disclosure measured in the PD-1/PD-L1 Homogenous Time-Resolved Fluorescence (HTRF) binding assay. Ranges are as follows: A=0.18 nM-0.99 nM; B=1.0 nM-5.0 nM; C=5.01 nM-10.1 nM; D=10.2 nM-200 nM; E=201 nM→10 uM

Sequence of PD-1/PD-L1 (Q9NZQ7 other isoform, or with tags, fused parts or gaps): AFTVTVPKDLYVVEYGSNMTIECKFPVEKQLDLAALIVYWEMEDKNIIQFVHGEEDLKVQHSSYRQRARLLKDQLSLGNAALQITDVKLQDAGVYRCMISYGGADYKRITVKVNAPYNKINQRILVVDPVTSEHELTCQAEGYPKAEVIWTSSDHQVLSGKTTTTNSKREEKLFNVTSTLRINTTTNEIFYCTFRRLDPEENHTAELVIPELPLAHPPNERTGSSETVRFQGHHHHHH

IC50 (value given as number) | IC50 (value given as range class) | SMILES
0.67 nM |  | Cc1c(COc2cc(OCc3cncc(C#N)c3)c(CN3CCCC[C@H]3C(=O)O)cc2Cl)cccc1-c1ccc2oc(C3CCN(C)C3)nc2c1 (stereo partly drawn) [Example 1008, (2S)-1-(5-chloro-2-((5-cyanopyridin-3-yl)methoxy)-4-((2-methyl-3-(2-(1-methylpyrrolidin-3-yl)benzo[d]oxazol-5-yl)benzyl)oxy)benzyl)piperidine-2-carboxylic Acid]
 | 1 to 5 nM | CCC[C@@H](C(=O)O)N(C)Cc1cc(Cl)c(OCc2cccc(-c3ccc4oc(N5CCN(C)CC5)nc4c3)c2C)cc1OCc1cncc(C#N)c1 [Example 2018, (S)-2-((5-chloro-2-((5-cyanopyridin-3-yl)methoxy)-4-((2-methyl-3-(2-(4-methylpiperazin-1-yl)benzo[d]oxazol-5-yl)benzyl)oxy)benzyl)(methyl)amino)pentanoic Acid]
 | 1 to 5 nM | Cc1c(COc2cc(OCc3cncc(C#N)c3)c(CN3CCCC[C@H]3C(=O)O)cc2Cl)cccc1-c1ccc2nc(C3CCN(C)CC3)oc2c1 [Example 1002, (S)-1-(5-chloro-2-((5-cyanopyridin-3-yl)methoxy)-4-((2-methyl-3-(2-(1-methylpiperidin-4-yl)benzo[d]oxazol-6-yl)benzyl)oxy)benzyl)piperidine-2-carboxylic Acid]
 | 1 to 5 nM | Cc1c(COc2cc(OCc3cncc(C#N)c3)c(CN[C@@H](CO)C(=O)O)cc2Cl)cccc1-c1ccc2oc(N3CCN(C)CC3)nc2c1 [Example 2010, (5-chloro-2-((5-cyanopyridin-3-yl)methoxy)-4-((2-methyl-3-(2-(4-methylpiperazin-1-yl)benzo[d]oxazol-5-yl)benzyl)oxy)benzyl)-L-serine]
 | 1 to 5 nM | Cc1c(COc2cc(OCc3cncc(C#N)c3)c(CN(C)C(CO)CO)cc2Cl)cccc1-c1ccc2oc(N3CCN(C)CC3)nc2c1 [Example 2014]
3.8 nM |  | Cc1c(COc2cc(OCc3cncc(C#N)c3)c(CN(C)C(CO)CO)cc2Cl)cccc1-c1ccc2oc(N3C[C@@H]4C[C@H]3CN4C)nc2c1 [Example 2001]
 | 0.18 to 0.99 nM | Cc1c(COc2cc(OCc3cncc(C#N)c3)c(CN[C@](C)(CO)C(=O)O)cc2Cl)cccc1-c1ccc2oc(C3CCN(C)CC3)nc2c1 [Example 1020, (R)-2-((5-chloro-2-((5-cyanopyridin-3-yl)methoxy)-4-((2-methyl-3-(2-(1-methylpiperidin-4-yl)benzo[d]oxazol-5-yl)benzyl)oxy)benzyl)amino)-3-hydroxy-2-methylpropanoic Acid]
 | 0.18 to 0.99 nM | Cc1c(COc2cc(OCc3cncc(C#N)c3)c(CN3CCCC[C@H]3C(=O)O)cc2Cl)cccc1-c1ccc2ncc(C3=CCNCC3)nc2c1 [Example 1030, (S)-1-(5-chloro-2-((5-cyanopyridin-3-yl)methoxy)-4-((2-methyl-3-(3-(1,2,3,6-tetrahydropyridin-4-yl)quinoxalin-6-yl)benzyl)oxy)benzyl)piperidine-2-carboxylic Acid]
 | 1 to 5 nM | COC(=O)C1CCC(c2nc3cc(-c4cccc(COc5cc(OCc6cncc(C#N)c6)c(CN6CCCC[C@H]6C(=O)O)cc5Cl)c4C)ccc3o2)CC1 (stereo partly drawn) [Example 1024, (S)-1-(5-chloro-2-((5-cyanopyridin-3-yl)methoxy)-4-((3-(2-(4-(methoxycarbonyl)cyclohexyl)benzo[d]oxazol-5-yl)-2-methylbenzyl)oxy)benzyl)piperidine-2-carboxylic acid]
 | 5.01 to 10.1 nM | Cc1c(COc2cc(OCc3cncc(C#N)c3)c(CO)cc2Cl)cccc1-c1ccc2oc(C3CCN(C)CC3)nc2c1 [Example 1021, 5-((4-chloro-2-(hydroxymethyl)-5-((2-methyl-3-(2-(1-methylpiperidin-4-yl)benzo[d]oxazol-5-yl)benzyl)oxy)phenoxy)methyl)nicotinonitrile]
 | 201 to 10000 nM | COc1cc(OCc2cccc(-c3ccc4oc(C5CCN(c6ccccc6)CC5)nc4c3)c2C)c(Cl)cc1CN1CCCC[C@H]1C(=O)O [Example 1023, (S)-1-(5-chloro-2-methoxy-4-((2-methyl-3-(2-(1-phenylpiperidin-4-yl)benzo[d]oxazol-5-yl)benzyl)oxy)benzyl)piperidine-2-carboxylic Acid]
 | 10.2 to 200 nM | Cc1c(COc2cc(OCc3cncc(C#N)c3)c(CN3CCCC[C@H]3C(=O)O)cc2Cl)cccc1-c1ccc2oc(C3CCN(c4ccccc4)CC3)nc2c1 [Example 1022, (S)-1-(5-chloro-2-((5-cyanopyridin-3-yl)methoxy)-4-((2-methyl-3-(2-(1-phenylpiperidin-4-yl)benzo[d]oxazol-5-yl)benzyl)oxy)benzyl)piperidine-2-carboxylic Acid]
 | 1 to 5 nM | Cc1c(COc2cc(OCc3cncc(C#N)c3)c(CN3CCCC[C@H]3C(=O)O)cc2Cl)cccc1-c1ccc2oc(-c3ccncc3)nc2c1 [Example 1007, (S)-1-(5-chloro-2-((5-cyanopyridin-3-yl)methoxy)-4-((2-methyl-3-(2-(pyridin-4-yl)benzo[d]oxazol-5-yl)benzyl)oxy)benzyl)piperidine-2-carboxylic Acid]
 | 0.18 to 0.99 nM | CCN(CC)C1CCC(c2nc3cc(-c4cccc(COc5cc(OCc6cncc(C#N)c6)c(CN6CCCC[C@H]6C(=O)O)cc5Cl)c4C)ccc3o2)CC1 (stereo partly drawn) [Example 1012, (S)-1-(5-chloro-2-((5-cyanopyridin-3-yl)methoxy)-4-((3-(2-(4-(diethylamino)cyclohexyl)benzo[d]oxazol-5-yl)-2-methylbenzyl)oxy)benzyl)piperidine-2-carboxylic Acid]
 | 1 to 5 nM | Cc1c(COc2cc(OCc3cncc(C#N)c3)c(CN3CCCC[C@H]3C(=O)O)cc2Cl)cccc1-c1ccc2oc(C3CC4CCC(C3)O4)nc2c1 (stereo partly drawn) [Example 1018, (2S)-1-(4-((3-(2-(8-oxabicyclo[3.2.1]octan-3-yl)benzo[d]oxazol-5-yl)-2-methylbenzyl)oxy)-5-chloro-2-((5-cyanopyridin-3-yl)methoxy)benzyl)piperidine-2-carboxylic Acid]
 | 1 to 5 nM | Cc1c(COc2cc(OCc3cncc(C#N)c3)c(CN3CCCC[C@H]3C(=O)O)cc2Cl)cccc1-c1ccc2oc(N3CCN(C)CC3)nc2c1 [Example 2007, (S)-1-(5-chloro-2-((5-cyanopyridin-3-yl)methoxy)-4-((2-methyl-3-(2-(4-methylpiperazin-1-yl)benzo[d]oxazol-5-yl)benzyl)oxy)benzyl)piperidine-2-carboxylic Acid]
 | 1 to 5 nM | Cc1c(COc2cc(OCc3cncc(C#N)c3)c(CNC(CO)CO)cc2Cl)cccc1-c1ccc2oc(N3CCN(C)CC3)nc2c1 [Example 2008]
 | 5.01 to 10.1 nM | Cc1c(COc2cc(OCc3cncc(C#N)c3)c(CN3CCCC[C@H]3C(=O)O)cc2Cl)cccc1-c1ccc2oc(C34CC(N)(C3)C4)nc2c1 [Example 1015, (S)-1-(4-((3-(2-(3-aminobicyclo[1.1.1]pentan-1-yl)benzo[d]oxazol-5-yl)-2-methylbenzyl)oxy)-5-chloro-2-((5-cyanopyridin-3-yl)methoxy)benzyl)piperidine-2-carboxylic Acid]
 | 5.01 to 10.1 nM | Cc1c(COc2cc(OCc3cncc(C#N)c3)c(CN3CCCC[C@H]3C(=O)O)cc2Cl)cccc1-c1ccc2oc(N3C[C@@H]4C[C@H]3CN4C)nc2c1 [Example 2002, (S)-1-(5-chloro-2-((5-cyanopyridin-3-yl)methoxy)-4-((2-methyl-3-(2-((1S,4S)-5-methyl-2,5-diazabicyclo[2.2.1]heptan-2-yl)benzo[d]oxazol-5-yl)benzyl)oxy)benzyl)piperidine-2-carboxylic Acid]
 | 201 to 10000 nM | Cc1c(COc2cc(OCc3cncc(C#N)c3)c(CN3CCCC[C@H]3C(=O)O)cc2Cl)cccc1-c1ccc2oc(C3CCC(C(=O)O)CC3)nc2c1 (single isomer, unassigned) [Example 1026]

SMILES | IC50 (value given as number) | IC50 (value given as range class)
Cc1c(COc2cc(OCc3cncc(C#N)c3)c(CN3CCCC[C@H]3C(=O)O)cc2Cl)cccc1-c1ccc2ncc(C3=CC4CCC(C3)N4C(=O)OC(C)(C)C)nc2c1 (stereo partly shown) [Example 1028] |  | 201 to 10000 nM
Cc1c(COc2cc(OCc3cncc(C#N)c3)c(CN3CCCC[C@H]3C(=O)O)cc2Cl)cccc1-c1ccc2ncc(C3=CC4CCC(C3)N4)nc2c1 (stereo partly drawn) [Example 1029, (2S)-1-(4-((3-(3-(8-Azabicyclo[3.2.1]oct-2-en-3-yl)quinoxalin-6-yl)-2-methylbenzyl)-oxy)-5-chloro-2-((5-cyanopyridin-3-yl)methoxy)benzyl)piperidine-2-carboxylic acid] |  | 1 to 5 nM
